According to patent publication US6147076A, “Analogues of N-acetylardeemin, method of preparation and uses thereof” (priority 1996, dated 2000):
Values joined by “and” are separate entries in the source; they are usually repeats but may differ in a detail not shown here. Identical values can stand only once. Like-named read-outs stand apart in the source and are kept apart here. Numbered stars: 1 amine (or outer) side, 2 acyl side, 3 side chain; on linkers, the order of the positions; unused ones are H or OH. Bridge positions count the residues as written; N and C are the ends. Square brackets hold non-standard residues; d marks the D form. Peptide text beside a SMILES is read from it. I, II: the chains in the order shown. Actinocin(9to1) = Cc1c2oc3c(C)ccc(C(=O)[*:1])c3nc-2c(C(=O)[*:2])c(N)c1=O; NMeV = CN[C@H](C(=O)O)C(C)C; Sar = CNCC(=O)O

How the values were obtained:
CCRF-CEM/VM-1 cells = experiment: Cytotoxicity toward VM-26-resistant CCRF-CEM/VM-1 cells (mutated Topo II gene); assay type: cell-based, human
CCRF-CEM cells [1] = experiment: Intracellular accumulation of [3H]vinblastine in CCRF-CEM cells; assay type: cell-based, human; details: 30 μM
Method: (§1) *Cells were preloaded with [^3 H]
(§2) times (or without wash) with 100 ml cold medium to remove extracellular
(§3) with or without a reverse prenyl compound or an MDRreversing agent. Cells
(§4) were then separated from radioactive medium by microfuge oillayer method.
(§5) Extracellular space counts carried down # by cells (^3 HInulin space
(§6) were subtracted from the total radioactive counts.

CCRF-CEM/VLB-100 cells = experiment: Intracellular accumulation of [3H]vinblastine in CCRF-CEM/VLB-100 cells; assay type: cell-based, human; details: 30 μM
Method: as §1, §2, §3, §4, §5, §6

CCRF-CEM/VBL100 cells [2] = experiment: cells; details: Homo sapiens
CCRF-CEM cells [3] = experiment: Cytotoxicity / growth inhibition of CCRF-CEM leukemic cells
DC-3F/ADX cells = experiment: Cytotoxicity toward DC-3F/ADX cells; assay type: cell-based, hamster; details: for IC50: DC3F/ADX, DC-3F/ADX; for (C)/(A): IC50 ratio DC-3F/ADX to DC-3F, * collaterally sensitive
DC-3F/ADII cells [4] = test system: DC-3F/ADII cells
DC-3F/ADII cells [5] = experiment: cells; details: Mesocricetus auratus, DC3F
DC-3F hamster lung cells = experiment: Cytotoxicity toward DC-3F hamster lung cells
CCRF-CEM/VBL100 cells [6] = test system: CCRF-CEM/VBL100 cells
CCRF-CEM cells [7] = test system: CCRF-CEM cells
[8] = Homo sapiens, CCRF-CEM, Table 5A, CCRF-CEM/VM-1, read-out: IC50
[9] = Table 5A, CCRF-CEM/VLB, * collaterally sensitive vs parent
[10] = read-out: IC50 of reversing agent, Table 6B, CCRF-CEM/VBL
[11] = Homo sapiens, Table 5A, single determinations
[12] = Homo sapiens, read-out: IC50 of reversing agent, Table 6B, CCRF-CEM
[13] = read-out: IC50, mean ± spread, Table 5A, CCRF-CEM/VLB, mean
[14] = Homo sapiens, read-out: IC50, mean ± spread, Table 5A, CCRF-CEM, mean
[15] = Table 5A, single determinations
[16] = Homo sapiens, Table 6, CCRF-CEM
[17] = Homo sapiens, CCRF-CEM, Table 6B, CCRF-CEM/VM-1, read-out: IC50 of reversing agent
[18] = IC50 ratio DC-3F/ADII to DC-3F, * collaterally sensitive
[19] = Mesocricetus auratus, DC3F, read-out: IC50 (A), mean ± spread, mean of the determinations
[20] = Mesocricetus auratus, DC3F, read-out: IC50 (A), single determinations
[21] = read-out: IC50 (A), single determinations

Compound | IC50 (CCRF-CEM/VM-1 cells; [8]) [µM] | [3H]vinblastine accumulation (CCRF-CEM cells [1]; washed) [fmole/10^3 cells] | [3H]vinblastine accumulation (CCRF-CEM cells [1]; without wash) [fmole/10^3 cells] | [3H]vinblastine accumulation (CCRF-CEM/VLB-100 cells; washed) [fmole/10^3 cells] | [3H]vinblastine accumulation (CCRF-CEM/VLB-100 cells; without wash) [fmole/10^3 cells] | IC50 (CCRF-CEM/VBL100 cells [2]; [9]) [µM] | IC50 (CCRF-CEM/VBL100 cells [2]; [10]) [µM] | IC50 (CCRF-CEM cells [3]; [11]) [µM] | IC50 (CCRF-CEM cells [3]; [12]) [µM] | IC50 (CCRF-CEM/VBL100 cells [2]; [13]) [µM] | IC50 (CCRF-CEM cells [3]; [14]) [µM] | IC50 (CCRF-CEM cells [3]; [15]) | IC50 (CCRF-CEM/VBL100 cells [2]; Table 6, CCRF-CEM/VBL) [µM] | IC50 (CCRF-CEM cells [3]; [16]) [µM] | further results
C=CC(C)(C)C12CC3c4nc5ccccc5c(=O)n4C(C)C(=O)N3C1N(C(=O)C(F)(F)F)c1ccccc12 (stereo not drawn) [5N F3 -Ac-Ard 3F, 5N-Tri-F Acetyl Ardeemin] | 52.6 | 28.44 | 34.01 | 7.28 | 32.68 | 17.2 | 17.2 | 37.5 | 37.6 |  |  |  |  |  | 
C=CC(C)(C)C12CC3C(=O)NCC(=O)N3C1N(C(C)=O)c1ccccc12 (stereo not drawn) [5N-Ac-8-desMe-DKP, 5N-acetyl diketopiperazine] |  |  |  |  |  |  |  | 21.4 |  | 19.9 ± 13 | 22.1 ± 0.7 | 22.7 µM |  |  | IC50 (CCRF-CEM/VM-1 cells; Homo sapiens, CCRF-CEM): 35.8 µM
C=CC(C)(C)C12CC3C(=O)NC(C)C(=O)N3C1N(C(C)=O)c1ccccc12 (stereo not drawn) [5N-Ac-DKP 14(E), N-acetyldiketopiperazine] | 32.4 | 29.54 | 35.08 | 3.59 | 12.88 |  |  |  |  | 344 ± 197 | 397 ± 171 |  | 541 | 225 | 
C=CC(C)(C)C12CC3C(=O)NC(C)C(=O)N3C1N(C(=O)C(F)(F)F)c1ccccc12 (stereo not drawn) [5N-F3 -Ac-DKP 14F(E), 5N-trifluoroacetyl diketopiperazine] | 41 | 28.75 | 33.34 | 5.77 | 23.34 | 24.6 | 24.8 | 32.8 | 32.8 |  | 32.2 ± 0.7 | 31.5 µM |  |  | IC50 (CCRF-CEM/VM-1 cells; [17]): 40.9 µM
C=CC(C)(C)C12CC3C(=O)NCC(=O)N3C1N(C=O)c1ccccc12 (stereo not drawn) [5N-formyl-8-desMe-DKP] |  |  |  |  |  | 372 |  | 200 |  |  |  |  |  |  | 
C=CC(C)(C)C12CC3c4nc5ccccc5c(=O)n4CC(=O)N3C1Nc1ccccc12 (stereo not drawn) [8-Desmethyl-Ardeemin] |  |  |  |  |  |  | 18.8 |  | 14.3 |  |  |  |  |  | IC50 (DC-3F/ADX cells): 4.7 µM; (C)/(A) (DC-3F/ADX cells): 0.49 X; IC50 (CCRF-CEM/VM-1 cells; [17]): 18.1 µM; (B)/(A) (DC-3F/ADII cells [4]; [18]): 3.5 X; IC50 (DC-3F/ADII cells [5]; read-out: IC50 (B)): 26.5 µM; IC50 (DC-3F hamster lung cells; [19]): 9.58 ± 1.29 µM; IC50 (DC-3F hamster lung cells; [20]): 10.9 µM; IC50 (DC-3F hamster lung cells; [21]): 8.29 µM
Cc1c2oc3c(C)ccc(C(=O)N[C@@H]4C(=O)N[C@H](C(C)C)C(=O)N5CCC[C@H]5C(=O)N(C)CC(=O)N(C)[C@@H](C(C)C)C(=O)O[C@@H]4C)c3nc-2c(C(=O)N[C@@H]2C(=O)N[C@H](C(C)C)C(=O)N3CCC[C@H]3C(=O)N(C)CC(=O)N(C)[C@@H](C(C)C)C(=O)O[C@@H]2C)c(N)c1=O [Actinomycin D, reference compound] (I: T[dV]P[Sar][NMeV] / II: T[dV]P[Sar][NMeV]; ester I:1-I:C, II:1-II:C; linker I:N-II:N via Actinocin(9to1)) |  |  |  |  |  |  |  |  |  |  |  |  |  |  | (C)/(A), resistance in words (DC-3F/ADX cells): Very Resistant; IC50 (DC-3F/ADX cells): 1.23 µM; (C)/(A) (DC-3F/ADX cells): 4738.5 X; (B)/(A), resistance in words (DC-3F/ADII cells [4]): Resistant; (B)/(A) (DC-3F/ADII cells [4]; [18]): 349.6 X; IC50 (DC-3F/ADII cells [5]; read-out: IC50 (B), DC-3F/ADII): 0.0909 µM; IC50 (DC-3F hamster lung cells; [19]): 0.00026 ± 5e-05 µM; IC50 (DC-3F hamster lung cells; [20]): 0.00021 µM; IC50 (DC-3F hamster lung cells; [21]): 0.00031 µM
C=CC(C)(C)C12CC3C(=O)NCC(=O)N3C1Nc1ccccc12 (stereo not drawn) [Desmethyl-DKP] |  |  |  |  |  |  |  |  |  |  |  |  |  |  | IC50 (DC-3F/ADX cells): 199 µM; (C)/(A) (DC-3F/ADX cells): 1.5 X; (B)/(A) (DC-3F/ADII cells [4]): 1.3 X; IC50 (DC-3F/ADII cells [5]; read-out: IC50 (B)): 103 µM; IC50 (DC-3F hamster lung cells; [19]): 131 ± 14.7 µM; IC50 (DC-3F hamster lung cells; [20]): 116 µM; IC50 (DC-3F hamster lung cells; [21]): 145 µM
C=CC(C)(C)C12CC3C(=O)NC(C)C(=O)N3C1Nc1ccccc12 (stereo not drawn) [Diketopiperazine 14(B), Diketopiperazine] |  | 28.51 | 35.84 | 3.33 | 10.81 |  | 135 | 143 | 143 | 94.6 ± 40.8 | 132 ± 11.5 |  | 147 | 148 | IC50 (CCRF-CEM/VM-1 cells; Homo sapiens, CCRF-CEM): 178 µM; IC50 (CCRF-CEM/VM-1 cells; Homo sapiens, CCRF-CEM, read-out: IC50 of reversing agent): 178 µM; IC50 (CCRF-CEM cells [3]; Table 5A, single determinations, listed as DKP 14(B)): 120 µM
C=CC(C)(C)C12CC3C(=O)N(C(C)=O)C(C)C(=O)N3C1N(C(C)=O)c1ccccc12 (stereo not drawn) [Imide Di-Ac-DKP Amide 14(D), imide diacetate diketopiperazine] | 81.4 | 28.36 | 34.54 | 4.01 | 15.92 | 51.4 |  | 103 |  | 54.7 ± 3.3 | 83.4 ± 23.4 | 64 µM | 37.1 | 62.5 | IC50 (CCRF-CEM/VM-1 cells; Homo sapiens, CCRF-CEM, Table 5A, CCRF-CEM/VM-1, mean, read-out: IC50, mean ± spread): 85.2 ± 4 µM; IC50 (CCRF-CEM/VM-1 cells; Table 5A, CCRF-CEM/VM-1, read-out: IC50): 89 µM; IC50 (CCRF-CEM/VBL100 cells [6]; [9]): 58 µM
C=CC(C)(C)C12CC3C(=O)N(C(C)=O)C(C)C(=O)N3C1Nc1ccccc12 (stereo not drawn) [Imide-Ac-DKP 14(A), imide acetate diketopiperazine] | 50 | 30.18 | 34.87 | 4.52 | 18.93 | 39.7 |  | 48.1 |  | 38 ± 1.8 | 61 ± 13.1 | 47.9 µM and 87 µM | 39.7 | 48.1 | IC50 (CCRF-CEM/VBL100 cells [6]; [9]): 36.2 µM
C=CC(C)(C)C12CC3C(=O)N(C(=O)OC(C)(C)C)C(C)C(=O)N3C1Nc1ccccc12 (stereo not drawn) [Imide-BOC-DKP 14(C), imide-BOC diketopiperazine] | 205 | 30.29 | 35.56 | 6.10 | 25.44 | 65.4 |  |  |  | 92.9 ± 27.3 | 204 ± 116 |  | 65.4 | 88.7 | IC50 (CCRF-CEM/VBL100 cells [6]; [9]): 120 µM
COc1cc(NS(C)(=O)=O)ccc1Nc1c2ccccc2nc2ccccc12 [M-AMSA, reference compound] |  |  |  |  |  |  |  |  |  |  |  |  |  |  | IC50 (CCRF-CEM/VM-1 cells; ccrf-cem/vm-1 cells): 2.55 µM; IC50 (DC-3F/ADII cells [4]; dc-3f/adii cells): 0.032 µM; IC50 (CCRF-CEM cells [7]): 0.184 µM; IC50 (CCRF-CEM/VBL100 cells [6]; ccrf-cem/vbl100 cells): 0.656 µM
